Drawing on ChEMBL document CHEMBL1131806, “Structure-activity relationships of pyrroloquinazolines as thrombin receptor antagonists” (Bioorg Med Chem Lett, 1999), this text covers IC50, inhibition and Inhibition for 18 compounds.

Active and inactive are the calls of the source. The calls are words filed in the database; no cut-off is given here.

In assay [1] the target is T1, Proteinase-activated receptor 1 (Homo sapiens, UniProt P25116).
T1 sequence (P25116 whole entry): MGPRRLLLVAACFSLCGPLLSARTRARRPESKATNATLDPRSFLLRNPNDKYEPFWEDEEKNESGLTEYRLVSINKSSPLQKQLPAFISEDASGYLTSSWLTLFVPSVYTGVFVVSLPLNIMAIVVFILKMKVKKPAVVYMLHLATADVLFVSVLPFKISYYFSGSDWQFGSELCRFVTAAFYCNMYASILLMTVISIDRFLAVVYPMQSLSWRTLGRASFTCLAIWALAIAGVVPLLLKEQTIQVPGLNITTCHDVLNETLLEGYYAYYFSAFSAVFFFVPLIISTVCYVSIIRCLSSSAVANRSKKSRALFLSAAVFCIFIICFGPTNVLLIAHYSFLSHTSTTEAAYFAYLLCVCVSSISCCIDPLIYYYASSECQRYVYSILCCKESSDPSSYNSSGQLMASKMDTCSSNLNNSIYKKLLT
As to the kind of experiment: Inhibitory activity against binding to Thrombin receptor 1 (PAR-1).

Assay [2] is filed under the species Homo sapiens. Kind of assay: Compound was evaluated for the inhibition of aggregation induced by 300 nM ha-TRAP(high affinity thrombin receptor agonist peptide) at 10 uM concentration; NA = Not active. It is filed as functional, organism-based.
The species named for assay [3] is Homo sapiens. Kind of assay: Compound was evaluated for the inhibition of aggregation induced by 0.1 U/mL thrombin at 10 uM concentration and determined at 2 min; NA = Not active. It is filed as functional, organism-based.
In assay [4] the target is T2, Proteinase-activated receptor 1 (Homo sapiens) (UniProt P25116).
T2 sequence (whole entry): T1 sequence (P25116 whole entry)
As to the kind of experiment: Compound was evaluated for inhibitory activity against binding to Thrombin receptor 1 (PAR-1) at 1 uM concentration.

The species entered for assay [5] is Homo sapiens. Kind of assay: Compound was evaluated for the inhibition of aggregation induced by 300 nM ha-TRAP(high affinity thrombin receptor agonist peptide). Format: functional, organism-based.
Assay [6] is filed under the species Homo sapiens. Kind of assay: Compound was evaluated for the inhibition of aggregation induced by 300 nM ha-TRAP(high affinity thrombin receptor agonist peptide) at 10 uM concentration. Format: functional.
The species entered for assay [7] is Homo sapiens. Kind of assay: Compound was evaluated for the inhibition of aggregation induced by 0.1 U/mL thrombin and determined at 2 min. It is filed as functional, organism-based.
The species entered for assay [8] is Homo sapiens. As to the kind of experiment: Compound was evaluated for the inhibition of platelet aggregation induced by 0.1 U/mL thrombin at concentration. of 10 uM; NA = Not active. It is filed as functional, organism-based.

Take `CCOc1ccc(Cn2ccc3c4c(N)nc(N)nc4ccc32)cc1`: in assay [1], the IC50 (commonly the concentration needed to halve the response being measured) was determined as 2630 nM.

On to `CC(C)c1ccc(Cn2ccc3c4c(N)nc(NCCO)nc4ccc32)cc1`, for which the inhibition entry in the assay listed under Homo sapiens [2] and in the assay listed under Homo sapiens [3] was “inactive” throughout. Further, in assay [1], the 50% inhibitory concentration (IC50) stood at 4900 nM.

In the case of `CC(C)c1ccc(Cn2ccc3c4c(N)nc(N5CCNCC5)nc4ccc32)cc1`, the inhibition result in the assay filed under Homo sapiens [2] and in the assay filed under Homo sapiens [3] was “inactive” each time. Besides, the inhibition (in general, the share of the control response that was lost under treatment) in assay [4] was determined as 17%.

Turning to `CC(C)c1ccc(Cn2ccc3c4c(N)nc(N5CCc6ccccc6C5)nc4ccc32)cc1`, the inhibition result (in assay [4]; in the assay listed under Homo sapiens [3]) was “inactive” in each case.

Turning to `CCNc1nc(N)c2c(ccc3c2ccn3Cc2ccc(C(C)C)cc2)n1`, the IC50 was found to be 524 nM in assay [1] and 600 nM in the assay listed under Homo sapiens [5]. In addition, the inhibition result in the assay filed under Homo sapiens [3] is “inactive”.

In assay [1], `C=Cc1ccc(Cn2ccc3c4c(N)nc(N)nc4ccc32)cc1` displayed a concentration for half-maximal inhibition (IC50) of 9600 nM.

`CC(C)(C)c1ccc(Cn2ccc3c4c(N)nc(N)nc4ccc32)cc1` displayed a half-inhibitory concentration (IC50) in assay [1] of 1230 nM.

For `CSc1ccc(Cn2ccc3c4c(N)nc(N)nc4ccc32)cc1`, the IC50 in assay [1] amounted to 6880 nM.

Take `CCc1ccc(Cn2ccc3c4c(N)nc(N)nc4ccc32)cc1`: in assay [1], the IC50 is 4500 nM.

As for `CC(C)c1ccc(Cn2ccc3c4c(N(C)C)nc(N(C)C)nc4ccc32)cc1`, the IC50 in assay [1] turned out to be 1250 nM. Besides, the inhibition entry in the assay filed under Homo sapiens [3] is “inactive”. Further, the Inhibition – broadly, the drop in the measured response relative to a control, in per cent – in the assay filed under Homo sapiens [6] is reported as 40%.

On to `CC(C)c1ccc(Cn2ccc3c4c(N)nc(NC5CC5)nc4ccc32)cc1`, for which the concentration for half-maximal inhibition (IC50) was 56 nM in assay [1], 300 nM in the assay filed under Homo sapiens [5] and 3000 nM in the assay filed under Homo sapiens [7].

For the compound `CC(C)c1ccc(Cn2ccc3c4c(N)nc(N(C)C5CC5)nc4ccc32)cc1`, the IC50 in assay [1] came to 52 nM; in the assay listed under Homo sapiens [5], 150 nM; in the assay filed under Homo sapiens [7] it was 700 nM.

As for `CC(C)c1ccc(Cn2ccc3c4c(N)nc(N)nc4ccc32)cc1`, the IC50 in assay [1] was 300 nM; in the assay filed under Homo sapiens [5], 3000 nM. The inhibition entry in the assay filed under Homo sapiens [8] is “inactive”.

Turning to `Cc1ccc2cc(Cn3ccc4c5c(N)nc(N)nc5ccc43)ccc2c1`, the IC50 in assay [1] turned out to be 1750 nM.

Turning to `CNc1nc(N(C)C)nc2ccc3c(ccn3Cc3ccc(C(C)C)cc3)c12`, the IC50 in assay [1] turned out to be 3200 nM. For the same compound, the inhibition entry in the assay listed under Homo sapiens [3] is “inactive”.

In the case of `CC(C)c1ccc(Cn2ccc3c4c(N)nc(N(C)C)nc4ccc32)cc1`, the IC50 was determined as 100 nM in assay [1] and 2000 nM in the assay listed under Homo sapiens [5]. Moreover, the inhibition entry in the assay filed under Homo sapiens [3] is “inactive”.

Consider `CC(C)c1ccc(Cn2ccc3c4c(N)nc(N5CCCCC5)nc4ccc32)cc1`, for which the values for the half-inhibitory concentration (IC50) (in assay [1]; in the assay listed under Homo sapiens [5]) were 100 nM and 600 nM, respectively. Besides, the inhibition result in the assay filed under Homo sapiens [3] was “inactive”.

On to `CNc1nc(N)c2c(ccc3c2ccn3Cc2ccc(C(C)C)cc2)n1`, for which the values for the IC50 (in assay [1]; in the assay filed under Homo sapiens [5]) were 870 nM and 600 nM, respectively. The inhibition result in the assay listed under Homo sapiens [3] was “inactive”.
